# Experimental data taken from patent publication US6355799B1, “Substituted benzene compounds, process for their preparation, and herbicidal and defoliant compositions containing them” (ISK Americas Incorporated, priority 1997, dated 2002).
# Tests used:
# Format in all cases: in vivo
# [1] = system: redroot pigweed (Amaranthus retroflexus, AMARE); test: Pre-emerge test, greenhouse herbicide activity screening; settings: pre-emerge, rated 14 days after application, 0 = no damage, 100 = complete death
# Method in brief: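 Rating: 0–100 visual injury, 14 DAA. Application: acetone, 187 l/ha, 15–1000 g ai/ha, flat-fan track sprayer with nozzle 40–45 cm above soil or canopy. Post-emerge runs used 0.25% v/v surfactant on 2–3 leaf plants.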
# [2] = system: barnyardgrass (Echinochloa crus-galli, ECHCG); test: as above; settings: pre-emerge, rated 14 days after application, 0 = no damage, 100 = complete death
# Method in brief: (§1)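 Herbicidal damage is scored 0 (none) to 100 (complete plant death) two weeks after a simulated field spray. Rates span 15–1000 g ai/ha, delivered in acetone at 187 l/ha. For post-emergence treatments, plants have 2–3 leaves and the spray carries 0.25% v/v non-ionic surfactant.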
# [3] = system: green foxtail (Setaria viridis, SETVI); test: as above; settings: pre-emerge, rated 14 days after application, 0 = no damage, 100 = complete death
# Method in brief: as §1
# [4] = system: ivyleaf morningglory (Ipomoea hederacea, IPOHE); test: as above; settings: pre-emerge, rated 14 days after application, 0 = no damage, 100 = complete death
# Method in brief: as §1
# [5] = system: johnsongrass (Sorghum halepense, SORHA); test: as above; settings: pre-emerge, rated 14 days after application, 0 = no damage, 100 = complete death
# Method in brief: as §1
# [6] = system: lambsquarters (Chenopodium album, CHEAL); test: as above; settings: pre-emerge, rated 14 days after application, 0 = no damage, 100 = complete death
# Method in brief: as §1
# [7] = system: large crabgrass (Digitaria sanguinalis, DIGSA); test: as above; settings: pre-emerge, rated 14 days after application, 0 = no damage, 100 = complete death
# Method in brief: as §1
# [8] = system: sicklepod (Cassia obtusifolia, CASOB); test: as above; settings: pre-emerge, rated 14 days after application, 0 = no damage, 100 = complete death
# Method in brief: as §1
# [9] = system: velvetleaf (Abutilon theophrasti, ABUTH); test: as above; settings: pre-emerge, rated 14 days after application, 0 = no damage, 100 = complete death
# Method in brief: as §1
# [10] = system: field corn (Zea mays L., var. Dekalb 535, CORN); test: Pre-emerge test, crop safety; settings: pre-emerge, rated 14 days after application, 0 = no damage, 100 = complete death
# Method in brief: (§2)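 Plants grown in 10 cm pots of sandy loam mix received acetone-dissolved compounds through a moving flat-fan nozzle. Doses ranged from 15 to 1000 g ai/ha. Pre-emerge pots were seeded one day earlier, post-emerge pots 8–21 days earlier. Fourteen days on, each pot was graded 0–100 for damage.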
# [11] = system: upland rice (Oryza sp., var. Tebonnet, RICE); test: Pre-emerge test, crop safety; settings: pre-emerge, rated 14 days after application, 0 = no damage, 100 = complete death
# Method in brief: as §2
# [12] = system: barnyardgrass (Echinochloa crus-galli, ECHCG); test: Post-emerge test, greenhouse herbicide activity screening; settings: phytotoxicity rating 0-100 (0 no damage, 100 complete death), 14 days after application
# Method in brief: as §1
# [13] = system: green foxtail (Setaria viridis, SETVI); test: as above; settings: phytotoxicity rating 0-100 (0 no damage, 100 complete death), 14 days after application
# Method in brief: as §1
# [14] = system: ivyleaf morningglory (Ipomoea hederacea, IPOHE); test: as above; settings: phytotoxicity rating 0-100 (0 no damage, 100 complete death), 14 days after application
# Method in brief: as §1
# [15] = system: johnsongrass (Sorghum halepense, SORHA); test: as above; settings: phytotoxicity rating 0-100 (0 no damage, 100 complete death), 14 days after application
# Method in brief: as §1
# [16] = system: lambsquarters (Chenopodium album, CHEAL); test: as above; settings: phytotoxicity rating 0-100 (0 no damage, 100 complete death), 14 days after application
# Method in brief: as §1
# [17] = system: large crabgrass (Digitaria sanguinalis, DIGSA); test: as above; settings: phytotoxicity rating 0-100 (0 no damage, 100 complete death), 14 days after application
# Method in brief: as §1
# [18] = system: redroot pigweed (Amaranthus retroflexus, AMARE); test: as above; settings: phytotoxicity rating 0-100 (0 no damage, 100 complete death), 14 days after application
# Method in brief: as §1
# [19] = system: sicklepod (Cassia obtusifolia, CASOB); test: as above; settings: phytotoxicity rating 0-100 (0 no damage, 100 complete death), 14 days after application
# Method in brief: as §1
# [20] = system: velvetleaf (Abutilon theophrasti, ABUTH); test: as above; settings: phytotoxicity rating 0-100 (0 no damage, 100 complete death), 14 days after application
# Method in brief: as §1
# [21] = system: field corn (Zea mays L., var. Dekalb 535, CORN); test: Post-emerge test, crop safety; settings: phytotoxicity rating 0-100 (0 no damage, 100 complete death), 14 days after application
# Method in brief: as §1
# [22] = system: upland rice (Oryza sp., var. Tebonnet, RICE); test: Post-emerge test, crop safety; settings: phytotoxicity rating 0-100 (0 no damage, 100 complete death), 14 days after application
# Method in brief: as §1
smiles,measurement,setting,value
Cc1c(Cl)cc(F)c(-n2c(=O)cc(C(F)(F)F)n(C)c2=O)c1N [Compound 1-37],"Pre-emerge Herbicidal Activity AMARE (phytotoxicity rating, scale 0-100)",[1]; 63 g ai/ha,100
same,"Pre-emerge Herbicidal Activity AMARE (phytotoxicity rating, scale 0-100)",[1]; 250 g ai/ha,100
same,"Pre-emerge Herbicidal Activity ECHCG (phytotoxicity rating, scale 0-100)",[2]; 63 g ai/ha,90
same,"Pre-emerge Herbicidal Activity ECHCG (phytotoxicity rating, scale 0-100)",[2]; 250 g ai/ha,100
same,"Pre-emerge Herbicidal Activity SETVI (phytotoxicity rating, scale 0-100)",[3]; 63 g ai/ha,100
same,"Pre-emerge Herbicidal Activity SETVI (phytotoxicity rating, scale 0-100)",[3]; 250 g ai/ha,100
same,"Pre-emerge Herbicidal Activity IPOHE (phytotoxicity rating, scale 0-100)",[4]; 63 g ai/ha,100
same,"Pre-emerge Herbicidal Activity IPOHE (phytotoxicity rating, scale 0-100)",[4]; 250 g ai/ha,100
same,"Pre-emerge Herbicidal Activity SORHA (phytotoxicity rating, scale 0-100)",[5]; 63 g ai/ha,90
same,"Pre-emerge Herbicidal Activity SORHA (phytotoxicity rating, scale 0-100)",[5]; 250 g ai/ha,100
same,"Pre-emerge Herbicidal Activity CHEAL (phytotoxicity rating, scale 0-100)",[6]; 63 g ai/ha,100
same,"Pre-emerge Herbicidal Activity CHEAL (phytotoxicity rating, scale 0-100)",[6]; 250 g ai/ha,100
same,"Pre-emerge Herbicidal Activity DIGSA (phytotoxicity rating, scale 0-100)",[7]; 63 g ai/ha,100
same,"Pre-emerge Herbicidal Activity DIGSA (phytotoxicity rating, scale 0-100)",[7]; 250 g ai/ha,100
same,"Pre-emerge Herbicidal Activity CASOB (phytotoxicity rating, scale 0-100)",[8]; 63 g ai/ha,80
same,"Pre-emerge Herbicidal Activity CASOB (phytotoxicity rating, scale 0-100)",[8]; 250 g ai/ha,100
same,"Pre-emerge Herbicidal Activity ABUTH (phytotoxicity rating, scale 0-100)",[9]; 63 g ai/ha,100
same,"Pre-emerge Herbicidal Activity ABUTH (phytotoxicity rating, scale 0-100)",[9]; 250 g ai/ha,100
same,"Pre-emerge crop damage CORN (phytotoxicity rating, scale 0-100)",[10]; 63 g ai/ha,15
same,"Pre-emerge crop damage CORN (phytotoxicity rating, scale 0-100)",[10]; 250 g ai/ha,90
same,"Pre-emerge crop damage RICE (phytotoxicity rating, scale 0-100)",[11]; 63 g ai/ha,60
same,"Pre-emerge crop damage RICE (phytotoxicity rating, scale 0-100)",[11]; 250 g ai/ha,90
same,Post-emerge Herbicidal Activity ECHCG,[12]; 63 g ai/ha,30
same,Post-emerge Herbicidal Activity ECHCG,[12]; 250 g ai/ha,90
same,Post-emerge Herbicidal Activity SETVI,[13]; 63 g ai/ha,20
same,Post-emerge Herbicidal Activity SETVI,[13]; 250 g ai/ha,80
same,Post-emerge Herbicidal Activity IPOHE,[14]; 63 g ai/ha,100
same,Post-emerge Herbicidal Activity IPOHE,[14]; 250 g ai/ha,100
same,Post-emerge Herbicidal Activity SORHA,[15]; 63 g ai/ha,10
same,Post-emerge Herbicidal Activity SORHA,[15]; 250 g ai/ha,70
same,Post-emerge Herbicidal Activity CHEAL,[16]; 63 g ai/ha,95
same,Post-emerge Herbicidal Activity CHEAL,[16]; 250 g ai/ha,100
same,Post-emerge Herbicidal Activity DIGSA,[17]; 63 g ai/ha,10
same,Post-emerge Herbicidal Activity DIGSA,[17]; 250 g ai/ha,70
same,Post-emerge Herbicidal Activity AMARE,[18]; 63 g ai/ha,90
same,Post-emerge Herbicidal Activity AMARE,[18]; 250 g ai/ha,100
same,Post-emerge Herbicidal Activity CASOB,[19]; 63 g ai/ha,65
same,Post-emerge Herbicidal Activity CASOB,[19]; 250 g ai/ha,90
same,Post-emerge Herbicidal Activity ABUTH,[20]; 63 g ai/ha,100
same,Post-emerge Herbicidal Activity ABUTH,[20]; 250 g ai/ha,100
same,Post-emerge Herbicidal Activity CORN (crop damage),[21]; 63 g ai/ha,10
same,Post-emerge Herbicidal Activity CORN (crop damage),[21]; 250 g ai/ha,60
same,Post-emerge Herbicidal Activity RICE (crop damage),[22]; 63 g ai/ha,25
same,Post-emerge Herbicidal Activity RICE (crop damage),[22]; 250 g ai/ha,60
